Test results: ChEMBL document CHEMBL1151510, “Inhibition of matrix metalloproteinases by P1 substituted N-carboxyalkyl dipeptides” (Bioorg Med Chem Lett, 1996)

How the values were obtained:
[1] = target: T1, 72 kDa type IV collagenase (Homo sapiens, UniProt P08253); experiment: Inhibition of matrix metalloprotease-2 at 1 uM.
Target sequence in this assay (P08253 110-660 limits assumed): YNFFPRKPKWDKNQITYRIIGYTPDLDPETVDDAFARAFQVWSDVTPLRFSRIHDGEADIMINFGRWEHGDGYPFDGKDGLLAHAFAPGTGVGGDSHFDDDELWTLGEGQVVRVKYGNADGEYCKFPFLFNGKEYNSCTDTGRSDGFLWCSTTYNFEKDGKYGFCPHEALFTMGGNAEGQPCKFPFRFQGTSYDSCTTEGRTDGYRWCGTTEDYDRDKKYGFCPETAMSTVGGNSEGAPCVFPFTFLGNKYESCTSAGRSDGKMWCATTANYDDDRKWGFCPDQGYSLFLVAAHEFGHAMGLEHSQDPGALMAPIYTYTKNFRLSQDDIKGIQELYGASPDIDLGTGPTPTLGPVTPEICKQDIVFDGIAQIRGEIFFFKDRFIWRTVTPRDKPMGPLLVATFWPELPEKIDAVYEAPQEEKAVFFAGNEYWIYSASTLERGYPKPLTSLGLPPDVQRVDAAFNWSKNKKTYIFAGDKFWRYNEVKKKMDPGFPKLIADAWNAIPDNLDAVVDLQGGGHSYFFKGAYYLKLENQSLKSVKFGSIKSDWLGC

[2] = target: T2, Interstitial collagenase (Homo sapiens, UniProt P03956); experiment: Inhibition of matrix metalloprotease -1.
T2 sequence (P03956 whole entry): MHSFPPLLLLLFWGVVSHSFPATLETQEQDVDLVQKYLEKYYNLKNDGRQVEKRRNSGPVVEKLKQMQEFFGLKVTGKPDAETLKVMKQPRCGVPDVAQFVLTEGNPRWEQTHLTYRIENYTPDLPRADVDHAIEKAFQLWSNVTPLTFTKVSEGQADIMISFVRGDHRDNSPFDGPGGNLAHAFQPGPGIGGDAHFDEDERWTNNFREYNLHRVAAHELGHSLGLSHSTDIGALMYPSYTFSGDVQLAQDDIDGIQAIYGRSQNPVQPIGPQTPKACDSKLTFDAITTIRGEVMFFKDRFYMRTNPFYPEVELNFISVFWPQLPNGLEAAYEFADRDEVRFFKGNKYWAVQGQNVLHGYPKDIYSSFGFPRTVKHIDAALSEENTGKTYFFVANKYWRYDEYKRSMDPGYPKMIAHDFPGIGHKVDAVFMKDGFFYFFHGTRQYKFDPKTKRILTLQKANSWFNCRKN

[3] = target: T3, Stromelysin-1 (Homo sapiens, UniProt P08254)
T3 sequence (P08254 whole entry): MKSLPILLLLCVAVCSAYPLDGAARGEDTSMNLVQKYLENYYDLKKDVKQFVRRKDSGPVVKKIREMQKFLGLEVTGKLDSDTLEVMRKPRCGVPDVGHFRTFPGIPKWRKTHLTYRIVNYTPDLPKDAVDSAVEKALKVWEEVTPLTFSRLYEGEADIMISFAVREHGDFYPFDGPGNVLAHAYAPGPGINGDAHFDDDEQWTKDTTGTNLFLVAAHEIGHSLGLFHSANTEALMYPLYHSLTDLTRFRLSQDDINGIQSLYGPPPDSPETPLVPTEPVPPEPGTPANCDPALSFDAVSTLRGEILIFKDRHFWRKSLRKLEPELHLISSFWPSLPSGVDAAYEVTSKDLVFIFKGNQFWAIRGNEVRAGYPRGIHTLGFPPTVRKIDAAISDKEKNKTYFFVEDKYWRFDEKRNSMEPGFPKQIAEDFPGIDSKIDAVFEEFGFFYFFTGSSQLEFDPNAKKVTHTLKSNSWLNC

[4] = target: T1, 72 kDa type IV collagenase; experiment: Inhibition of MMP-2.
Target sequence in this assay (P08253 whole entry): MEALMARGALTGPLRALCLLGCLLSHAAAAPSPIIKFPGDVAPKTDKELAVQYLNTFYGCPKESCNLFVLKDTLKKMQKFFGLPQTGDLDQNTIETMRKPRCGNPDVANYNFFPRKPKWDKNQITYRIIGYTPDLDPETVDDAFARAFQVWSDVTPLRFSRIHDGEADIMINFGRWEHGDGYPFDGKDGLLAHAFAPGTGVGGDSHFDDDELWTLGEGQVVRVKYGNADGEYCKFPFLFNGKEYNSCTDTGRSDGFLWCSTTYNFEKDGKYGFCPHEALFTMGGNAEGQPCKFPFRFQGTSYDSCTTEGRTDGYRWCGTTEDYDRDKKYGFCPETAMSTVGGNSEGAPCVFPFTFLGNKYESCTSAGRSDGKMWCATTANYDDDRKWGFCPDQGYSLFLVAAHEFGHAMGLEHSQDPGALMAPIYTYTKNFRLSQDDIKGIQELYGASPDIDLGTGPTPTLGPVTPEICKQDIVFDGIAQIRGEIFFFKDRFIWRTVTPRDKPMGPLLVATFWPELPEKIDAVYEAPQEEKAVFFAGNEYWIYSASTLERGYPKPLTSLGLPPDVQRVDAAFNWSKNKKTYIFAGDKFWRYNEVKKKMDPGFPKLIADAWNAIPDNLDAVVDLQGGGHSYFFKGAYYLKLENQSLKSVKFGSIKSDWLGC

[5] = target: T4, Interstitial collagenase (Homo sapiens) (UniProt P03956); experiment: Inhibition of matrix metalloprotease-1 at 10 uM
T4 sequence (whole entry): T2 sequence (P03956 whole entry)

[6] = target: T2, Interstitial collagenase; experiment: Inhibition of matrix metalloprotease -1
[7] = target: T3, Stromelysin-1; experiment: Inhibition of matrix metalloprotease -3
[8] = target: T1, 72 kDa type IV collagenase; experiment: Inhibition of matrix metalloprotease-2
Target sequence in this assay (P08253 whole entry): as above

[9] = target: T1, 72 kDa type IV collagenase; experiment: Inhibition of matrix metalloprotease-2 at 1 uM
Target sequence in this assay (P08253 110-660 limits assumed): as the sequence (P08253 110-660 limits assumed) above

SMILES | inhibition [1] [%] | Ki [2] [µM] | Ki [3] [µM] | Ki [4] [µM] | other results
CC(=O)N1CCCC1C(=O)NCCCC[C@@H](N[C@@H](CCc1ccccc1)C(=O)N[C@@H](CC(C)C)C(=O)Nc1ccccc1)C(=O)O (stereo partly drawn) | 91 | 1.1 | 0.18 |  | 
CC(C)C[C@H](NC(=O)[C@H](CCc1ccccc1)N[C@H](CCCN1C(=O)c2ccccc2C1=O)C(=O)O)C(=O)Nc1ccccc1 |  | 3.4 | 0.14 | 0.57 | 
CNC(=O)[C@H](Cc1ccccc1)NC(=O)[C@H](CC(C)C)N[C@H](CCN1C(=O)c2cc3ccccc3cc2C1=O)C(=O)O |  |  |  |  | Ki [6]: 0.005 µM; Ki [7]: 0.02 µM; Ki [8]: 0.091 µM
CC(C)C[C@H](NC(=O)[C@H](CCc1ccccc1)N[C@H](CCCCNC(=O)CCc1ccccc1)C(=O)O)C(=O)Nc1ccccc1 | 49 | 13 | 0.19 |  | 
CC(C)C[C@H](NC(=O)[C@H](CCc1ccccc1)N[C@H](CCNC(=O)CCCc1ccccc1)C(=O)O)C(=O)Nc1ccccc1 |  | 4.41 | 0.27 | 0.77 | 
CCCCCC[C@@H](N[C@@H](CCc1ccccc1)C(=O)N[C@@H](CC(C)C)C(=O)Nc1ccccc1)C(=O)O |  |  | 0.53 | 2.3 | inhibition [5]: 43%
CC(C)C[C@H](NC(=O)[C@H](CCc1ccccc1)N[C@H](CCCNC(=O)c1ccccc1)C(=O)O)C(=O)Nc1ccccc1 | 50 |  | 0.27 |  | inhibition [5]: 50%
CCCC[C@@H](N[C@@H](CCc1ccccc1)C(=O)N[C@@H](CC(C)C)C(=O)Nc1ccccc1)C(=O)O |  | 6.8 | 0.32 | 1.1 | 
CC[C@@H](N[C@@H](CCc1ccccc1)C(=O)N[C@@H](CC(C)C)C(=O)Nc1ccccc1)C(=O)O |  | 1.8 | 0.35 | 1.1 | 

Continued, in another order:

inhibition [1] [%] | Ki [2] [µM] | Ki [3] [µM] | Ki [4] [µM] | SMILES | other results
87 | 2.2 | 0.0095 |  | CC(C)C[C@H](NC(=O)[C@H](CCc1ccccc1)N[C@H](CCCNC(=O)CCc1ccccc1)C(=O)O)C(=O)Nc1ccccc1 | 
 | 3.89 | 0.02 | 0.12 | CC(C)C[C@H](NC(=O)[C@H](CCc1ccccc1)N[C@H](CCCCCNC(=O)c1ccccc1)C(=O)O)C(=O)Nc1ccccc1 | 
 | 1.6 | 0.012 | 0.11 | CC(C)C[C@H](NC(=O)[C@H](CCc1ccccc1)N[C@H](CCCCN1Cc2ccccc2C1=O)C(=O)O)C(=O)Nc1ccccc1 | 
70 |  | 0.12 |  | CC(C)C[C@H](NC(=O)[C@H](CCc1ccccc1)N[C@H](CCCNC(=O)CCCc1ccccc1)C(=O)O)C(=O)Nc1ccccc1 | inhibition [5]: 36%
 | 5.8 | 0.032 | 0.12 | CC(C)C[C@H](NC(=O)[C@H](CCc1ccccc1)N[C@H](CCCCNC(=O)c1ccccc1)C(=O)O)C(=O)Nc1ccccc1 | 
64 | 0.072 | 0.12 |  | CC(C)C[C@H](NC(=O)[C@H](CCc1ccccc1)N[C@H](CCCCc1ccccc1)C(=O)O)C(=O)Nc1ccccc1 | 
 | 7.2 | 0.028 | 0.07 | CC(C)C[C@H](NC(=O)[C@H](CCc1ccccc1)N[C@H](CCCCNC(=O)Cc1ccccc1)C(=O)O)C(=O)Nc1ccccc1 | 
 | 0.87 | 0.01 | 0.06 | CC(C)C[C@H](NC(=O)[C@H](CCc1ccccc1)N[C@H](CCCNC(=O)Cc1ccccc1)C(=O)O)C(=O)Nc1ccccc1 | 
 | 1.79 | 0.13 |  | CC(C)C[C@H](NC(=O)[C@H](CCc1ccccc1)N[C@H](CCNC(=O)Cc1ccccc1)C(=O)O)C(=O)Nc1ccccc1 | 
 | 2.09 | 0.033 | 0.02 | CC(C)C[C@H](NC(=O)[C@H](CCc1ccccc1)N[C@H](CCN1C(=O)c2ccccc2C1=O)C(=O)O)C(=O)Nc1ccccc1 | 
41 | 3.33 | 0.11 |  | CC(C)C[C@H](NC(=O)[C@H](CCc1ccccc1)N[C@H](CCNC(=O)CCc1ccccc1)C(=O)O)C(=O)Nc1ccccc1 | 
 | 5.81 | 0.047 | 0.35 | CC(C)C[C@H](NC(=O)[C@H](CCc1ccccc1)N[C@H](CCCCCNC(=O)Cc1ccccc1)C(=O)O)C(=O)Nc1ccccc1 | 
 | 0.72 | 0.008 | 0.086 | CC(C)C[C@H](NC(=O)[C@H](CCc1ccccc1)N[C@H](CCCCN1C(=O)c2ccccc2C1=O)C(=O)O)C(=O)Nc1ccccc1 | 
 | 1.09 | 0.12 |  | CC(C)C[C@H](NC(=O)[C@H](CCc1ccccc1)N[C@H](CCNC(=O)c1ccccc1)C(=O)O)C(=O)Nc1ccccc1 | inhibition [9]: 72%
